From patent publication US20250129103A1, “METHODS FOR TREATMENT OF CANCER” (Frontier Medicines Corporation, priority 2022, published 2025)
Values after ≈ are worked out from the molar mass of the structure shown.

Legend:
[1] = Determination of kinetic solubility (pH 7.4); format: physicochemical; settings: phosphate buffer, pH 7.4, aqueous buffer, kinetic from dmso stock, 50 mM phosphate buffer pH 7.4, read-out: Ksol, pH 7.4
Experimental: 490 μL of a 50 mM phosphate buffer (pH 7.4) was added to the sample solution. The mixture was vortexed for at least 2 minutes. The vial was shaken on a Barnstead shaker at 800 rpm at room temperature for 2 hours. The vial was centrifuged at 4000 rpm for 20 minutes. The Mini-UniPrep vial was compressed to prepare a filtrate, which was injected into an HPLC-UV and LC-MS/MS system. Kinetic solubility was calculated by referencing sample peak areas to a standard calibration curve.

[2] = target: KRAS G12C (GMPPNP-loaded) and cRAF (Ras-binding domain) interaction (Homo sapiens (Human), UniProt P01116, C118S/C51S/C80L/G12C); test: Inhibition of KRAS G12C and cRAF binding (AlphaScreen); settings: KRAS G12C loaded with GMPPNP, cRaf RBD, 2 hours preincubation; read-out: Raf-1 RBD K-Ras IC50
Experimental: Compounds were diluted in 100% DMSO and each compound concentration was spotted at 200 nl/well onto low volume, white 384 well plates. […] KRAS G12C was preloaded with the GTP analogue Guanosine 5′-[β,γ-imido]triphosphate (GMPPNP). The KRAS G12C was diluted in 25 mM Hepes, pH 7.4, 150 mM NaCl, 5 mM MgCl2, 0.01% TritonX-100 and 10 μM GMPPNP and added at 10 ul/well to compound-spotted plates resulting in a DMSO concentration of 2%. Plates were incubated for 2 hours. A mixture of RBD and the AlphaScreen streptavidin donor and glutathione acceptor beads diluted in 25 mM Hepes, pH 7.4, 150 mM NaCl, 5 mM MgCl2, 0.01% TritonX-100 and 2% DMSO was then added at 10 ul/well and incubated for 60-90 minutes before the samples were read for emission at 570 nm after excitation of the donor beads at 680 nm. All incubations were performed at room temperature. The final top compound concentration was 50 μM with 1:3 titrations for 10-point dose response curves. […] IC50S were determined using nonlinear regression fit of [inhibitor] vs. response (4 parameters). […]

[3] = Determination of logD (1-octanol / phosphate buffer pH 7.4); format: physicochemical; settings: 1-octanol/phosphate buffer, pH 7.4, pH 7.4, 1-octanol/phosphate buffer; read-out: Log D, pH 7.4
Experimental: Preparation of phosphate buffer saturated with 1-octanol: 10 mL of 100 mM phosphate buffer (pH 7.4) was added to 100 mL of 1-octanol. The mixture was shaken vigorously and left to stand at room temperature overnight.
Preparation of 1-octanol saturated with phosphate buffer: 10 mL of 1-octanol was added to 100 mL of 100 mM phosphate buffer (pH 7.4). The mixture was shaken vigorously and left to stand at room temperature overnight.
149 μL of phosphate buffer saturated with 1-octanol was added into 1st sample tube. 149 μL of 1-octanol saturated with phosphate buffer was added into the 2nd sample tube. The sample tubes were mixed vigorously and shaken for 1 hour at a speed of 800 rpm at room temperature. The sample tubes were subjected to centrifugation at 4000 rpm for 5 minutes at room temperature. Samples of the supernatant were taken from both tubes, diluted with an appropriate LCMS buffer, and analyzed on an LCMS instrument. LogD was calculated according to the following equation.

KRAS G12C (GMPPNP-loaded) and cRAF (Ras-binding domain) interaction, sequence (P01116 other isoform, or with tags, fused parts or gaps G12C/C51S/C80L/C118S): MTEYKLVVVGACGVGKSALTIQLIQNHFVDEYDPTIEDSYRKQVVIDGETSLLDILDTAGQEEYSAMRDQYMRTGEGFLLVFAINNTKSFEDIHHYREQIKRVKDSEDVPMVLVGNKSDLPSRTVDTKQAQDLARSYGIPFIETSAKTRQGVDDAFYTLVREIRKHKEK

Structure (SMILES)	solubility kinetic at 2 h [1]	IC50 [2]	logD [3]
Cc1cc(N)nc(C2Cc3nc(OC[C@@]45CCCN4C[C@H](F)C5)nc(N4CCN(C(=O)/C=C/C5CCN5C)[C@@H](CC#N)C4)c3CC2C)c1C(F)(F)F (stereo partly drawn) [Example 68, 2-((2S)-4-(7-(6-amino-4-methyl-3-(trifluoromethyl)pyridin-2-yl)-2-(((2R,7aS)-2-fluorohexahydro-1H-pyrrolizin-7a-yl)methoxy)-6-methyl-5,6,7,8-tetrahydroquinazolin-4-yl)-1-((E)-3-(1-methylazetidin-2-yl)acryloyl)piperazin-2-yl)acetonitrile]	102 µg/mL (≈ 140 µM)	–	–
N#CC[C@H]1CN(c2nc(OC[C@@]34CCCN3C[C@H](F)C4)nc3c(F)c(-c4cccc5cccc(Cl)c45)ncc23)CCN1C(=O)/C=C/c1nc(C2CC2)ncc1F [Compound 158]	0.01 µg/mL (≈ 0.0128 µM)	100 to 500 nM	4.52
CC(C)(C)c1noc(/C=C/C(=O)N2CCN(c3nc(OCC45CCCN4CCC5)nc4c(F)c(-c5cccc6cccc(Cl)c56)ncc34)C[C@@H]2CC#N)n1 [Compound 33]	50 µg/mL (≈ 66.7 µM)	100 to 500 nM	3.73
CO[C@H]1CCN(C/C=C/C(=O)N2CCN(c3nc(OC[C@@]45CCCN4C[C@H](F)C5)nc4c(F)c(-c5cccc(Cl)c5C5CC5)ncc34)C[C@@H]2CC#N)C1 [Compound 287]	114 µg/mL (≈ 152 µM)	< 10 nM	3.23
N#CC[C@H]1CN(c2nc(OC[C@@]34CCCN3C[C@H](F)C4)nc3c(F)c(-c4cccc5cccc(F)c45)ncc23)CCN1C(=O)/C=C/CN1CC2CCC(C1)O2 [Compound 245]	74.4 µg/mL (≈ 98.8 µM)	10 to 100 nM	2.91
N#CC[C@H]1CN(c2nc(OC[C@@]34CCCN3C[C@H](F)C4)nc3c(F)c(-c4cccc5ccc(F)c(F)c45)ncc23)CCN1C(=O)/C=C/CN1C[C@@H]2C[C@H]1CO2 [Compound 225]	135 µg/mL (≈ 178 µM)	< 10 nM	1.87
CC(C)(O)c1noc(/C=C/C(=O)N2CCN(c3nc(OCC45CCCN4CCC5)nc4c3CCN(c3cccc5cccc(Cl)c35)C4)C[C@@H]2CC#N)n1 [Example 16, (S,E)-2-(4-(7-(8-chloronaphthalen-1-yl)-2-((hexahydro-1H-pyrrolizin-7a-yl)methoxy)-5,6,7,8-tetrahydropyrido[3,4-d]pyrimidin-4-yl)-1-(3-(3-(2-hydroxypropan-2-yl)-1,2,4-oxadiazol-5-yl)acryloyl)piperazin-2-yl)acetonitrile]	73.1 µg/mL (≈ 99 µM)	10 to 100 nM	3.04
N#CC[C@H]1CN(c2nc(OC[C@@]34CCCN3C[C@H](F)C4)nc3c(F)c(-c4cccc5ccc(F)c(F)c45)ncc23)CCN1C(=O)/C=C/CN1CC[C@@H]2COC[C@H]21 [Compound 299]	118 µg/mL (≈ 153 µM)	< 10 nM	2.95
N#CC[C@H]1CN(c2nc(OC[C@@]34CCCN3C[C@H](F)C4)nc3c(F)c(-c4cccc5cccc(F)c45)ncc23)CCN1C(=O)/C=C/CN1CCOCC1 [Compound 233]	102 µg/mL (≈ 141 µM)	10 to 100 nM	2.91
C#Cc1c(F)ccc2cccc(-c3ncc4c(N5CCN(C(=O)/C=C/CN6CC7CCC(C6)O7)[C@@H](CC#N)C5)nc(OC[C@@]56CCCN5C[C@H](F)C6)nc4c3F)c12 [Compound 285]	70.4 µg/mL (≈ 90.6 µM)	< 10 nM	3.54
CC1(c2noc(/C=C/C(=O)N3CCN(c4nc(OCC56CCCN5CCC6)nc5c(F)c(-c6cccc7cccc(Cl)c67)ncc45)C[C@@H]3CC#N)n2)CC1 [Compound 118]	4.73 µg/mL (≈ 6.32 µM)	100 to 500 nM	3.24
N#CC[C@H]1CN(c2nc(OCC34CCCN3CCC4)nc3c(F)c(-c4cccc5cccc(Cl)c45)ncc23)CCN1C(=O)/C=C/c1nc([C@H]2C[C@@H]2F)no1 [Compound 38]	53.9 µg/mL (≈ 71.7 µM)	100 to 500 nM	2.91
N#CC[C@H]1CN(c2nc(OC[C@@]34CCCN3C[C@H](F)C4)nc3c(F)c(-c4cccc5cccc(Cl)c45)ncc23)CCN1C(=O)/C=C/CN1CC[C@@H]2COC[C@H]21 [Compound 298]	118 µg/mL (≈ 153 µM)	< 10 nM	2.99
N#CC[C@H]1CN(c2nc(OC[C@@]34CCCN3C[C@H](F)C4)nc3c(F)c(-c4cccc(Cl)c4C4CC4)ncc23)CCN1C(=O)/C=C/[C@H]1CCN1C1CC1 [Compound 314]	32.3 µg/mL (≈ 44.2 µM)	< 10 nM	4.05
Cc1c(Cl)cccc1-c1ncc2c(N3CCN(C(=O)/C=C/CN4[C@@H]5CC[C@H]4COC5)[C@@H](CC#N)C3)nc(OC[C@@]34CCCN3C[C@H](F)C4)nc2c1F [Compound 273]	124 µg/mL (≈ 169 µM)	< 10 nM	3.1
N#CC[C@H]1CN(c2nc(OC[C@@]34CCCN3C[C@H](F)C4)nc3c(F)c(-c4cccc5cccc(Cl)c45)ncc23)CCN1C(=O)/C=C/CN1C[C@@H]2CC[C@H]1CO2 [Compound 259]	147 µg/mL (≈ 191 µM)	< 10 nM	2.92
Cc1cc(/C=C/C(=O)N2CCN(c3nc(OC[C@@]45CCCN4C[C@H](F)C5)nc4c(F)c(-c5cccc6ccc(F)c(C)c56)ncc34)C[C@@H]2CC#N)nc(C)n1 [Compound 105, 2-((S)-1-((E)-3-(2,6-dimethylpyrimidin-4-yl)acryloyl)-4-(8-fluoro-7-(7-fluoro-8-methylnaphthalen-1-yl)-2-(((2R,7aS)-2-fluorotetrahydro-1H-pyrrolizin-7a(5H)-yl)methoxy)pyrido[4,3-d]pyrimidin-4-yl)piperazin-2-yl)acetonitrile]	2.36 µg/mL (≈ 3.16 µM)	< 10 nM	3.99
N#CC[C@H]1CN(c2nc(OC[C@@]34CCCN3C[C@H](F)C4)nc3c(F)c(-c4cccc5ccc(F)c(F)c45)ncc23)CCN1C(=O)/C=C/CN1CCCOCC1 [Compound 110, 2-((S)-1-((E)-4-(1,4-oxazepan-4-yl)but-2-enoyl)-4-(7-(7,8-difluoronaphthalen-1-yl)-8-fluoro-2-(((2R,7aS)-2-fluorotetrahydro-1H-pyrrolizin-7a(5H)-yl)methoxy)pyrido[4,3-d]pyrimidin-4-yl)piperazin-2-yl)acetonitrile]	78.6 µg/mL (≈ 104 µM)	< 10 nM	2.9
N#CC[C@H]1CN(c2nc(OCC34CCCN3CCC4)nc3c(F)c(-c4cccc5cccc(Cl)c45)ncc23)CCN1C(=O)/C=C/CN1CCOCC1 [Compound 149]	106 µg/mL (≈ 147 µM)	10 to 100 nM	–
Cc1nccc(/C=C/C(=O)N2CCN(c3nc(OCC45CCCN4CCC5)nc4c(F)c(-c5cccc6ccc(F)c(Cl)c56)ncc34)C[C@@H]2CC#N)n1 [Compound 155]	89.1 µg/mL (≈ 121 µM)	< 10 nM	–
Cc1cc(N)nc(C2Cc3nc(OC[C@@]45CCCN4C[C@H](F)C5)nc(N4CCN(C(=O)/C=C/CN5CCOCC5)[C@@H](CC#N)C4)c3CC2C)c1C(F)(F)F (mixture of isomers) [Example 67, 2-((2S)-4-(7-(6-amino-4-methyl-3-(trifluoromethyl)pyridin-2-yl)-2-(((2R,7aS)-2-fluorotetrahydro-1H-pyrrolizin-7a(5H)-yl)methoxy)-6-methyl-5,6,7,8-tetrahydroquinazolin-4-yl)-1-((E)-4-morpholinobut-2-enoyl)piperazin-2-yl)acetonitrile]	–	10 to 100 nM	2.98
Cc1cc(N)nc(C2Cc3nc(OC[C@@]45CCCN4C[C@H](F)C5)nc(N4CCN(C(=O)/C=C/CN5CCOCC5)[C@@H](CC#N)C4)c3CC2C)c1C(F)(F)F (stereo partly drawn) [Example 67, 2-((2S)-4-(7-(6-amino-4-methyl-3-(trifluoromethyl)pyridin-2-yl)-2-(((2R,7aS)-2-fluorotetrahydro-1H-pyrrolizin-7a(5H)-yl)methoxy)-6-methyl-5,6,7,8-tetrahydroquinazolin-4-yl)-1-((E)-4-morpholinobut-2-enoyl)piperazin-2-yl)acetonitrile]	78.2 µg/mL (≈ 103 µM)	–	–
